Data set [1] concerns M2R mouse melanoma tumors. The data set is described as follows: In vivo PDT of M2R melanoma tumors. Also noted: species or system CD1 nude mice. To be noted: 2.5 mg/Kg i.v., illuminated 30 min at 300 mW cm^−2; within 24 h. The procedure:
(iv) Tumor implantation: Mice were implanted with 10^6 M2R cells on the back and tumors arose to the treatment size (7-8 mm) within 2-3 weeks.
(v) Light source: Osram 150 W halogen photo-optic lamp 64643 (D. K. Keller et al 1999, Int. J. Hyperthermia 15, 467-474) equipped with λ=650-900 mn spectral window, 300 mW/cm^−2. Illumination was for 30 min.
(vi) PDT protocol: The anesthetized mouse was i.v injected with the pigment and the tumor immediately illuminated. At the end of treatment the mouse was placed back in the cage. Photographs of the tumor were taken before and at the times indicated.
Preparation of sensitizer: Two mg Pd-BPheid were dissolved in 0.25 ml cremophor EL followed by 20 min sonication. 0.075 ml 1,2-propylene glycol were added and sonication was continued for another 15 min. Then 0.9 ml of […] were added followed by 5 min sonication. The sample was centrifuged for 12 min at 13,000 rpm (Eppendorf). The final calculated concentration of Pd-BPheid based on spectrum in chloroform was 0.5 mg/ml. […]
Preparation of sensitizer: Two mg Pd-BPheid were dissolved in 0.1 ml methanol, 0.1 ml 0.1M KH2PO4, pH=8.0 and 0.9 ml PBS and sonicated for 10 min. […] The sample was centrifuged for 8 min on 13,000 rpm the final calculated concentration of Pd-BPheid based on spectrum in chloroform was 0.5 mg/ml. […]

Data set [2] deals with HT29 human colon adenocarcinoma. The data set is described as follows: In vivo phototoxicity on grafted HT29 tumors (tumoral index). Further details: species or system Swiss nude mice. To be noted: for tumor growth as compared to controls / duration of decrease of tumor index: 15 mg/kg i.v., 763 nm. The procedure: Animal and tumor model: Solid tumor tissue (diameter 2 cm) removed from donor mouse immediately after death was mechanically crushed in 1 ml of 0.9% saline solution and the solution (0.1 ml) was injected s.c. into one hind leg of each mouse. Mice were included for experiments when the tumor diameter was 8-10 mm. Tumors were grafted s.c. in 8-week aged Swiss nude mice 10 days before experiment.
Phototoxic studies: 0.15 ml Pd-BPheid was injected i.v. at 15 mg/kg. Mice were anesthetized with thiopental at 40 mg/kg just before irradiation. At 30 min, 1 h, 4 h or 24 h after injection, mice were irradiated with a titanium sapphire laser at 300 mW/cm^2, mean diameter were measured to adjust time irradiation to obtain 200 or 300 J/cm^2. Control mice not injected with Pd-BPheid were also irradiated in same conditions. The tumor growth delay induced by PDT was analyzed by equivalence with tests realized in experimental radiotherapy. For in vivo studies and for each separate experiment, all results were the mean of 2 or 3 separate experiments and for each separate experiment, 2 mice were used for each experimental condition.
Concerning tumoral growth studies, results are expressed as tumoral index variations with reference (=1) corresponding to tumoral index from non-treated cells. The tumoral index was calculated as follows:
Tumoral index=(largest tumoral diameter+perpendicularly opposite diameter)/2.

Data set [3] concerns HDL, LDL, Albumin fractions of human serum. The data set is described as follows: Plasma lipoprotein binding (density-gradient centrifugation). Particulars: 3 μM, 30 min at 37° C. It is filed as in vitro ADME. The method, then:
(iv) Lipoprotein binding: Binding of Pd-BPheid to protein and lipoprotein compound of control human plasma was determined. Incubation of 250 μl plasma sample with 3 μM of the compound for 30 min at 37° C. Lipoprotein and protein components were then separated by density-gradient centrifugator. The gradients were fractionated, fractions diluted into 3 ml of 10 mM Triton X-100 detergent or of fluorescence at 750-800 nm determined upon excitation at 400 nm.

Experimental findings from patent publication US6569846B1, “Palladium-substituted bacteriochlorophyll derivatives and use thereof” (Yeda Research and Development Co. Ltd., priority 1998, dated 2003) are described below.

Turning to `CC[C@H]1C2=NC(=Cc3c(C(C)=O)c(C)c4[n]3[Pd][n]3c(c(C)c5c3=C(C3=NC(=C4)[C@@H](C)[C@@H]3CCC(=O)O)[C@@H](C(=O)OC)C5=O)=C2)[C@@H]1C` [Pd-BPheid, Pd-bacteriopheophorbide a], the “tumor response to PDT” value in data set [1] was “severe inflammatory response with necrosis of the tumor”. The “tumor growth as compared to controls” value in data set [2] (200 J/cm^2, 30 min and 4 h after injection) is listed as “tumor growth decrease”; in data set [2] (300 J/cm^2, 30 min and 24 h after injection), “tumor growth decrease”. In addition, the “duration of decrease of tumor index” value in data set [2] (200 J/cm^2, 1 h and 24 h after injection) is listed as “up to 7 days”; in data set [2] (300 J/cm^2, 1 h and 4 h after injection) it was “up to 7 days”. The “wavelength of maximum tumor growth decrease” value in data set [2] (300 J/cm^2, 1 h after injection) came out at 763 nm; in data set [2] (300 J/cm^2, 24 h after injection), 773 nm. The “duration of tumor growth decrease as compared to controls” value in data set [2] (300 J/cm^2, 1 h after injection, 753 nm and 763 nm) is “up to 12 days”; in data set [2] (300 J/cm^2, 1 h after injection, 773 nm) it was “up to 5 days”; in data set [2] (300 J/cm^2, 24 h after injection, 753 nm) it was “up to 4 days”; in data set [2] (300 J/cm^2, 24 h after injection, 763 nm and 773 nm), “up to 12 days”. The “most efficient delay between injection and illumination” value was 24 h in data set [2] (773 nm wavelength) and “one hour” in data set [2] (at 764 nm). The “optimal wavelength of irradiation” value in data set [2] (summary of the study) is 773 nm. Moreover, the “plasma lipoprotein binding, rank order of fractions” value in data set [3] was “HDL>LDL>>>Albumin”.
